Assay results published in US9040715B2 (priority 2008, dated 2015).
Values after ≈ are worked out from the molar mass of the structure shown. Like-named read-outs stand apart in the source and are kept apart here. *1 amine or outer side, *2 acyl side, *3 side chain or, on linkers, in order; H or OH if unused. Where a SMILES comes first, the peptide text is derived from it. Bridges are numbered along the chain shown (N, C = ends). [ ]: non-standard residue; d: D form. The star is where a group is joined. hTyr(3S-OH,4S-OH,3'-OSO3H) = N[C@H](C(=O)O)[C@H](O)[C@@H](O)c1ccc(O)c(OS(=O)(=O)O)c1; Orn(4R-OH,5R-OH) = O=C([C@H](C[C@@H](O)[C@@H](O)N[*:3])N[*:1])[*:2]; Pro(3S-OH,4S-Me) = C[C@H]1CN[C@H](C(=O)O)[C@H]1O; X1 = CCCCCOc1ccc(-c2cc(-c3ccc(C(=O)*)cc3)no2)cc1; Gln(3R-OH) = NC(=O)C[C@@H](O)[C@H](N)C(=O)O; Hyp = O=C(O)[C@@H]1C[C@@H](O)CN1

What was measured:
Assay type in all cases: cell-based
[1] = tested on: Saccharomyces cerevisiae (YPH501); assay: Anti-fungal/anti-yeast activity: MIC50 (broth microdilution) and MFC
Candida lusitaniae = assay: as above; conditions: for MFC / MIC50: Clavispora lusitaniae
Description: (§1) Fluconazole, an ergosterol inhibitor, and the beta-1,3-glucan inhibitor micafungin served as controls (See Tables 1-8).
(§2) The minimum inhibitory concentrations resulting in 50% growth inhibition (MIC50) of […] Candida species (C. albicans, C. tropicalis and C. glabrata, C. lusitaniae, C. parapsilosis, and C. apicola) as well as Aspergillus fumigatus to a set of novel synthetic compounds was determined in accordance with the guidelines in CLSI document M27-A2 (Clinical and Laboratory Standards Institute; Wayne, Pa.). The total volume of cells and drug was 100 μL per microtiter well, and each drug was diluted in RPMI to achieve final concentrations of 0.2-100 μg/ml. Uninoculated cultures were used as a reference standard. Stock inoculum suspensions were prepared from 24 hour cultures on YPD (yeast extract/peptone/dextrose) media at 30° C. For MIC determinations, an inoculum of 1.0×10^3 cells of Candidia and 2.0×10^3 cells of Aspergillus per well were used, and cells in diluted drugs were prepared in RPMI-1640 medium. MICs were determined both visually and spectrophotometrically at 24 hours and 48 h at 550 nm using a micro plate reader. The MIC50 endpoint was measured as the lowest drug concentration resulting in a reduction of growth of 50% or more compared with growth of the control.
(§3) The minimum fungicidal concentrations (MFCs) were determined for each drug-isolate-medium combination as follows. After 48 hours of incubation, 100 μL of each drug-isolate-medium combination (2 plates) was subcultured onto YPD plates (100 μL of solution was spread over the YPD plate). […] The plates were then incubated at 30° C. for 48 hours.
(§4) The in vitro fungicidal activities (MFCs) were determined for each drug-isolate-medium combination as follows. After 48 hours of incubation, 10 μL each drug-isolate-medium combination was spotted onto YPD plates (10 μL of each well is spotted sequentially with positive and negative control wells). […] The plates were then incubated at 30° C. for 48 hours.

Candida glabrata = assay: as above; conditions: for MFC / MIC50: Nakaseomyces glabratus
Description: as §1, §2, §3, §4

Candida albicans (CAF-2) = assay: as above
Description: as §1, §2, §3, §4

Candida apicola = assay: as above; conditions: for MFC / MIC50: Starmerella apicola
Description: as §1, §2, §3, §4

Candidia parapsilosis = assay: as above
Description: as §1, §2, §3, §4

Candida tropicalis = assay: as above
Description: as §1, §2, §3, §4

Aspergillus fumigatus = assay: as above
Description: as §1, §2, §3, §4

[2] = tested on: Fluconazole Resistant C. albicans; assay: microbe, parasite or virus in culture; conditions: Candida albicans, read-out: MIC50
Description: as §2
The MIC50 of Compounds I-1, I-2, and I-5 in several mutant strains of Candida albicans, including fluconazole resistant clinical strains, was determined according to the methods described in Example 1 (see Table 9). The activity of Compound I-1 against fluconazole resistant strains was further explored (see Table 10). In Table 10, Strain #1 is a fluconazole sensitive Candida albicans strain; Strain #17 is a fluconazole resistant Candida albicans strain; C. albicans CS#01 is a first clinical strain; C. albicans CS#02 is a second clinical strain.

[3] = Saccharomyces cerevisiae (YPH501)

With CCCCCOc1ccc(-c2cc(-c3ccc(C(=O)N[C@H]4C[C@@H](O)[C@@H](O)NC(=O)[C@@H]5[C@@H](O)[C@@H](C)CN5C(=O)[C@H]([C@H](O)CC(N)=O)NC(=O)[C@H]([C@H](O)[C@@H](O)c5ccc(O)c(OS(=O)(=O)O)c5)NC(=O)[C@@H]5C[C@@H](O)CN5C(=O)[C@H]([C@@H](C)O)NC4=O)cc3)no2)cc1 [Micafungin, micafungin, reference compound] (X1-[Orn(4R-OH,5R-OH)]T[Hyp][hTyr(3S-OH,4S-OH,3'-OSO3H)][Gln(3R-OH)][Pro(3S-OH,4S-Me)]; lactam 1-C) the MFC ([1]; Saccharomyces cerevisiae) was 0.064 µg/mL (≈ 0.0504 µM), the MIC50 ([1]; Saccharomyces cerevisiae) was 0.032 µg/mL (≈ 0.0252 µM) and the “Activity (fungicidal/fungistatic)” value [1, 3] was “fungicidal (An MFC/MIC ratio of less than four indicates that the compound is fungicidal)”. The “Ratio MFC/MIC” value [1, 3] was 2, the “Activity (fungicidal/fungistatic)” value (Candida lusitaniae; Candida lusitaniae) was “fungicidal (An MFC/MIC ratio of less than four indicates that the compound is fungicidal)” and the “Ratio MFC/MIC” value (Candida lusitaniae; Candida lusitaniae) was 1. The MFC (Candida lusitaniae) was 0.032 µg/mL, the MIC50 (Candida lusitaniae) was 0.032 µg/mL and the “Activity (fungicidal/fungistatic)” value (Candida glabrata; Candida glabrata) was “fungicidal (An MFC/MIC ratio of less than four indicates that the compound is fungicidal)”. For the same compound, the “Ratio MFC/MIC” value (Candida glabrata; Candida glabrata) was 1, the MFC (Candida glabrata) was 0.016 µg/mL and the MIC50 (Candida glabrata) was 0.016 µg/mL. For the same compound, the “Activity (fungicidal/fungistatic)” value (Candida albicans (CAF-2)) was “fungicidal (An MFC/MIC ratio of less than four indicates that the compound is fungicidal)”, the MFC (Candida albicans (CAF-2)) was 0.016 µg/mL and the MIC50 (Candida albicans (CAF-2)) was 0.016 µg/mL. For the same compound, the “Ratio MFC/MIC” value (Candida albicans (CAF-2)) was 1, the “Activity (fungicidal/fungistatic)” value (Candida apicola; Candida apicola) was “fungicidal (An MFC/MIC ratio of less than four indicates that the compound is fungicidal)” and the “Ratio MFC/MIC” value (Candida apicola; Candida apicola) was 2. It also gave an MFC (Candida apicola) of 0.032 µg/mL, an MIC50 (Candida apicola) of 0.016 µg/mL and an MFC (Candidia parapsilosis) of 3.2 µg/mL. For the same compound, the MIC50 (Candidia parapsilosis) was 0.4 µg/mL, the “Activity (fungicidal/fungistatic)” value (Candidia parapsilosis; Candidia parapsilosis) was “fungistatic (an MFC/MIC ratio of greater than four indicates that the compound is fungistatic)” and the “Ratio MFC/MIC” value (Candidia parapsilosis; Candidia parapsilosis) was 8. The “Activity (fungicidal/fungistatic)” value (Candida tropicalis) was “fungicidal (An MFC/MIC ratio of less than four indicates that the compound is fungicidal)”, the MFC (Candida tropicalis) was 0.032 µg/mL and the MIC50 (Candida tropicalis) was 0.016 µg/mL. For the same compound, the “Ratio MFC/MIC” value (Candida tropicalis) was 2, the “Activity (fungicidal/fungistatic)” value (Aspergillus fumigatus) was “fungistatic (an MFC/MIC ratio of greater than four indicates that the compound is fungistatic)” and the MFC (Aspergillus fumigatus) was 8 µg/mL. For the same compound, the MIC50 (Aspergillus fumigatus) was 1 µg/mL and the “Ratio MFC/MIC” value (Aspergillus fumigatus) was 8.

With OC(Cn1cncn1)(Cn1cncn1)c1ccc(F)cc1F [Fluconazole, reference compound] the “Activity (fungicidal/fungistatic)” value [1, 3] was “fungicidal (An MFC/MIC ratio of less than four indicates that the compound is fungicidal)”, the “Ratio MFC/MIC” value [1, 3] was 1 and the MFC ([1]; Saccharomyces cerevisiae (YPH501), read-out: MFC) was 10 µg/mL (≈ 32.7 µM). It also gave an MIC50 ([1]; Saccharomyces cerevisiae (YPH501), read-out: MIC-50) of 10 µg/mL (≈ 32.7 µM), an MIC50 ([2]; C. albicans CS#01, first clinical strain) of 1.6 µg/mL (≈ 5.22 µM) and an MIC50 ([2]; C. albicans CS#02, second clinical strain) of 1.6 µg/mL (≈ 5.22 µM). For the same compound, the MIC50 ([2]; Strain #1, fluconazole sensitive Candida albicans strain) was 0.8 µg/mL (≈ 2.61 µM), the MIC50 ([2]; Strain #17, fluconazole resistant Candida albicans strain) was over 100 µg/mL and the “Activity (fungicidal/fungistatic)” value (Candida lusitaniae; Candida lusitaniae) was “fungistatic (an MFC/MIC ratio of greater than four indicates that the compound is fungistatic)”. The “Ratio MFC/MIC” value (Candida lusitaniae; Candida lusitaniae) was 8, the MFC (Candida lusitaniae; Candida lusitaniae, read-out: MFC) was 25 µg/mL and the MIC50 (Candida lusitaniae; Candida lusitaniae, read-out: MIC-50) was 3.2 µg/mL. For the same compound, the “Activity (fungicidal/fungistatic)” value (Candida glabrata; Candida glabrata) was “fungistatic (an MFC/MIC ratio of greater than four indicates that the compound is fungistatic)”, the “Ratio MFC/MIC” value (Candida glabrata; Candida glabrata) was 9 and the MFC (Candida glabrata; Candida glabrata, read-out: MFC) was 50 µg/mL. For the same compound, the MIC50 (Candida glabrata; Candida glabrata, read-out: MIC-50) was 6.2 µg/mL, the “Activity (fungicidal/fungistatic)” value (Candida albicans (CAF-2)) was “fungistatic (an MFC/MIC ratio of greater than four indicates that the compound is fungistatic)” and the MFC (Candida albicans (CAF-2)) was 5 µg/mL. The MIC50 (Candida albicans (CAF-2)) was 0.25 µg/mL, the “Ratio MFC/MIC” value (Candida albicans (CAF-2)) was 20 and the “Activity (fungicidal/fungistatic)” value (Candida apicola; Candida apicola) was “fungistatic (an MFC/MIC ratio of greater than four indicates that the compound is fungistatic)”. The “Ratio MFC/MIC” value (Candida apicola; Candida apicola) was 5, the MFC (Candida apicola; Candida apicola, read-out: MFC) was 1 µg/mL and the MIC50 (Candida apicola; Candida apicola, read-out: MIC-50) was 0.2 µg/mL. The “Activity (fungicidal/fungistatic)” value (Candidia parapsilosis; Candidia parapsilosis) was “fungistatic (an MFC/MIC ratio of greater than four indicates that the compound is fungistatic)”, the “Ratio MFC/MIC” value (Candidia parapsilosis; Candidia parapsilosis) was 10 and the MFC (Candidia parapsilosis; Candidia parapsilosis, read-out: MFC) was 4 µg/mL. The MIC50 (Candidia parapsilosis; Candidia parapsilosis, read-out: MIC-50) was 0.4 µg/mL, the “Activity (fungicidal/fungistatic)” value (Candida tropicalis) was “fungistatic (an MFC/MIC ratio of greater than four indicates that the compound is fungistatic)” and the “Ratio MFC/MIC” value (Candida tropicalis) was 5. The MFC (Candida tropicalis; read-out: MFC) was 100 µg/mL, the MIC50 (Candida tropicalis; read-out: MIC-50) was 20 µg/mL and the “Activity (fungicidal/fungistatic)” value (Aspergillus fumigatus) was “fungistatic (an MFC/MIC ratio of greater than four indicates that the compound is fungistatic)”. The “Ratio MFC/MIC” value (Aspergillus fumigatus) was 7, the MFC (Aspergillus fumigatus; read-out: MFC) was 200 µg/mL and the MIC50 (Aspergillus fumigatus; read-out: MIC-50) was 30 µg/mL.
